PubChem BioAssay (NCI)
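Results reflect a 48-hour exposure of cells in 96-well plates to compound at five concentrations. The concentration for 50% growth inhibition is given as GI50. At the TGI there is no net growth.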

Experiments:
Experiment in all cases: growth of human tumour cells (NCI), 48 h
UO-31 renal = system: UO-31 renal
HL-60(TB) leukemia = system: HL-60(TB) leukemia
TK-10 renal = system: TK-10 renal
OVCAR-8 ovarian = system: OVCAR-8 ovarian
HS 578T breast = system: HS 578T breast
LOX IMVI melanoma = system: LOX IMVI melanoma
MDA-MB-435 = system: MDA-MB-435
M14 melanoma = system: M14 melanoma
UACC-62 melanoma = system: UACC-62 melanoma
COLO 205 colon = system: COLO 205 colon
EKVX NSCLC = system: EKVX NSCLC
NCI-H23 lung = system: NCI-H23 lung
MALME-3M melanoma = system: MALME-3M melanoma
SW-620 colon = system: SW-620 colon
K-562 leukemia = system: K-562 leukemia
A549 NSCLC = system: A549 NSCLC
ACHN renal = system: ACHN renal
MOLT-4 leukemia = system: MOLT-4 leukemia
NCI-H522 lung = system: NCI-H522 lung
NCI-H226 lung = system: NCI-H226 lung
NCI-H460 lung = system: NCI-H460 lung
DU-145 prostate = system: DU-145 prostate
SN12C renal = system: SN12C renal
SNB-19 CNS = system: SNB-19 CNS
IGROV1 ovarian = system: IGROV1 ovarian
BT-549 breast = system: BT-549 breast
KM12 colon = system: KM12 colon
SK-MEL-2 melanoma = system: SK-MEL-2 melanoma

COC(=O)c1ccc2[nH]c(O)c(C(=Nc3ccc(N(C)C(=O)CN4CCN(C)CC4)cc3)c3ccccc3)c2c1
TGI (UO-31 renal): 3860 nM | GI50 (HL-60(TB) leukemia): 835 nM | TGI (HL-60(TB) leukemia): 3120 nM | GI50 (TK-10 renal): 3050 nM | TGI (TK-10 renal): 17000 nM | GI50 (OVCAR-8 ovarian): 1610 nM | TGI (OVCAR-8 ovarian): 7100 nM | GI50 (HS 578T breast): 266 nM | TGI (HS 578T breast): 4570 nM | GI50 (LOX IMVI melanoma): 552 nM | TGI (LOX IMVI melanoma): 1920 nM | GI50 (MDA-MB-435): 890 nM | TGI (MDA-MB-435): 4020 nM | GI50 (M14 melanoma): 729 nM | TGI (M14 melanoma): 2420 nM | GI50 (UACC-62 melanoma): 4020 nM | TGI (UACC-62 melanoma): 13800 nM | GI50 (COLO 205 colon): 700 nM | TGI (COLO 205 colon): 2450 nM | GI50 (EKVX NSCLC): 2980 nM | TGI (EKVX NSCLC): 16200 nM | GI50 (NCI-H23 lung): 1290 nM | TGI (NCI-H23 lung): 4140 nM | GI50 (MALME-3M melanoma): 1430 nM | TGI (MALME-3M melanoma): 2860 nM | GI50 (SW-620 colon): 795 nM | TGI (SW-620 colon): 4270 nM | GI50 (K-562 leukemia): 241 nM | TGI (K-562 leukemia): 11900 nM | GI50 (A549 NSCLC): 1460 nM | TGI (A549 NSCLC): 5310 nM | GI50 (ACHN renal): 1130 nM | TGI (ACHN renal): 4120 nM | GI50 (MOLT-4 leukemia): 389 nM | TGI (MOLT-4 leukemia): 4560 nM | GI50 (NCI-H522 lung): 1490 nM | TGI (NCI-H522 lung): 4410 nM | GI50 (NCI-H226 lung): 993 nM | TGI (NCI-H226 lung): 4990 nM | GI50 (NCI-H460 lung): 1870 nM | TGI (NCI-H460 lung): 5090 nM | GI50 (DU-145 prostate): 1270 nM | TGI (DU-145 prostate): 8980 nM | GI50 (SN12C renal): 267 nM | TGI (SN12C renal): 11600 nM | GI50 (SNB-19 CNS): 2950 nM | TGI (SNB-19 CNS): 8330 nM | GI50 (IGROV1 ovarian): 297 nM | TGI (IGROV1 ovarian): 1830 nM | GI50 (BT-549 breast): 1650 nM | TGI (BT-549 breast): 3280 nM | GI50 (KM12 colon): 35.3 nM | TGI (KM12 colon): 5520 nM | GI50 (SK-MEL-2 melanoma): 1170 nM | TGI (SK-MEL-2 melanoma): 3540 nM
